Results: publication PMC11280343, “Rubus urticifolius Compounds with Antioxidant Activity, and Inhibition Potential against Tyrosinase, Melanin, Hyaluronidase, Elastase, and Collagenase” (Pharmaceuticals, 2024)
Read-outs that look alike come from different tables or passages of the source.

Tests used:
[1] = NR viability assay, THP-1; assay type: cell-based, Homo sapiens; details: human
Procedure: (§1) The HEK001 (Homo sapiens cutaneous keratinocyte, CCL-2404), WS1 (Homo sapiens cutaneous fibroblast, CRL-1502), HMCB (Homo sapiens cutaneous melanoma, CRL-9607), and THP-1 (Homo sapiens peripheral blood monocyte, TIB-202) cell lines used in this study were obtained from the American Type Culture Collection (ATCC, Manassas, VA, USA). Cultivated in a Roswell Park Memorial Institute (RPMI) 1640 medium (RPMI 1640 Merck, Cat. No. R7755, New York, NY, USA) supplemented with 2 mM L-glutamine (≥99% Merck, Cat. No. 56-85-9), 10% fetal bovine serum (FBS Merck, Cat. No. TMS-016, St. Louis, MO, USA), and 10,000 units of penicillin and 10 mg streptomycin/mL (Merck, Cat. No. P4333, St. Louis, MO, USA) in culture flasks, the cells were maintained in an incubator under normoxic conditions (20–21% O2) and a humidified atmosphere (5% CO2 at 37 °C).
(§2) Mother solutions of samples (extracts, fractions, and compounds) were prepared at a concentration of […] using dimethyl sulfoxide (DMSO ≥ 99.9% Merck, Cat. No. 67-68-5, St. Louis, MO, USA) as the solvent. From these mother solutions, dilutions were prepared at concentrations ranging from 100 to 0.20 μg/mL or μM in culture medium containing 0.5% DMSO. Additionally, a negative control group consisting solely of culture medium with 0.5% DMSO was included to assess its potential cytotoxic effect on the cells.
(§3) Cell viability was evaluated using a colorimetric assay in 96-well plates, employing 3-amino-7-dimethylamino-2-methylphenazine hydrochloride salt reagent (NR, Merck, Cat. No. 553-24-2, St. Louis, MO, USA).
(§4) HEK001, WS1, HMCB, and THP-1 cell lines were cultured in 96-well plates at 37 °C with 5% CO2 until > 90% confluency was achieved (1 × 10^6 cells/well). Subsequently, the cultures were treated with sample dilutions (100–0.20 μg/mL or μM) for 72 h at 37 °C with 5% CO2 in phenol red-free RPMI. The supernatant was then discarded and the cells were washed with phosphate-buffered saline (PBS) before being incubated with […] NR (50 μg/mL; 173 μM) for 3 h at 37 °C with 5% CO2. NR labelling was performed after DMSO treatment. After incubation, the labelled sample dilutions were rapidly washed with a fixative solution composed of 1% calcium chloride (CaCl2 Merck, Cat. No. 10043-52-4, St. Louis, MO, USA) and 0.5% formaldehyde solution (≥36.0% in H2O Merck, Cat. No. 50-00-0, St. Louis, MO, USA), then diluted with 100 μL of the NR extraction solution. Finally, the plates were read at 540 nm using a microplate reader (Anthos 2020, version 2.0.5, Biochrom Ltd., Cambridge, UK).

[2] = NR viability assay, HEK001; assay type: cell-based, Homo sapiens; details: human
Procedure: as §1, §2, §3, §4

NR viability assay, WS1 = assay type: cell-based, Homo sapiens; details: human
Procedure: as §1, §2, §3, §4

NR viability assay, HMCB = assay type: cell-based, Homo sapiens; details: human
Procedure: as §1, §2, §3, §4

[3] = tested on: melanin production in HMCB cells; test: Melanin content assay; assay type: cell-based; details: Homo sapiens, 12 h
Procedure: (§5) To determine the anti-melanogenic activity of the samples (at the same concentration as in the viability assay), melanin inhibition assay was used, following the protocol carried out by Apaza Ticona et al.. HMCB cells were cultured in 96-well plates (1 × 10^6 cells/well). […] Absorbance was measured at 405 nm using a microplate reader.

NF-κB [4] = test: NF-κB inhibition assay (LPS-stimulated), THP-1; assay type: cell-based; details: Homo sapiens, read-out: NF-κB Inhibition at 72 h IC50 ± SEM
Procedure: as §5, with “anti-inflammatory” for “anti-melanogenic”, “NF-κB” for “melanin”, “Cells” for “HMCB cells”, “450” for “405”

NF-κB [5] = test: NF-κB inhibition assay (LPS-stimulated), HEK001; assay type: cell-based; details: Homo sapiens, read-out: NF-κB Inhibition at 72 h IC50 ± SEM
Procedure: as §5, with “anti-inflammatory” for “anti-melanogenic”, “NF-κB” for “melanin”, “Cells” for “HMCB cells”, “450” for “405”

NF-κB [6] = test: NF-κB inhibition assay (LPS-stimulated), WS1; assay type: cell-based; details: Homo sapiens, 72 h, read-out: NF-κB Inhibition at 72 h IC50 ± SEM
Procedure: as §5, with “anti-inflammatory” for “anti-melanogenic”, “NF-κB” for “melanin”, “Cells” for “HMCB cells”, “450” for “405”

NF-κB [7] = test: NF-κB inhibition assay (LPS-stimulated), HMCB; assay type: cell-based; details: Homo sapiens, 72 h, read-out: NF-κB Inhibition at 72 h IC50 ± SEM
Procedure: as §5, with “anti-inflammatory” for “anti-melanogenic”, “NF-κB” for “melanin”, “Cells” for “HMCB cells”, “450” for “405”

Nrf2 [8] = test: Nrf2 activation assay, THP-1; assay type: cell-based
Procedure: as §5, with “antioxidant response” for “anti-melanogenic activity”, “Nrf2 activation” for “melanin inhibition”, “Cells” for “HMCB cells”, “540” for “405”

Nrf2 [9] = test: Nrf2 activation assay, HEK001; assay type: cell-based
Procedure: as §5, with “antioxidant response” for “anti-melanogenic activity”, “Nrf2 activation” for “melanin inhibition”, “Cells” for “HMCB cells”, “540” for “405”

Nrf2 [10] = test: Nrf2 activation assay, WS1; assay type: cell-based; details: Homo sapiens, read-out: Activation of Nrf2 production EC50
Procedure: as §5, with “antioxidant response” for “anti-melanogenic activity”, “Nrf2 activation” for “melanin inhibition”, “Cells” for “HMCB cells”, “540” for “405”

Nrf2 [11] = test: Nrf2 activation assay, HMCB; assay type: cell-based; details: Homo sapiens, 72 h, read-out: Activation of Nrf2 production EC50
Procedure: as §5, with “antioxidant response” for “anti-melanogenic activity”, “Nrf2 activation” for “melanin inhibition”, “Cells” for “HMCB cells”, “540” for “405”

[12] = biological target: T1, elastase from porcine pancreas (Sus scrofa, UniProt P00772); test: Elastase-inhibitory effect assay; assay type: biochemical; details: for Elastase Inhibition (%): inhibition percentage 'at an IC50', concentration not otherwise stated
T1 construct: elastase from porcine pancreas (7.5 units/mL); from tissue; host or cells: porcine pancreas
Procedure: The elastase-inhibitory effect was evaluated, implementing the protocol adapted from Tu and Tawata.
A mixture containing N-succinyl-Ala-Ala-Ala-p-nitroanilide (AAAPVN, Merck, Cat. No. 52299-14-6, St. Louis, MO, USA) elastase substrate in 0.1232 M Tris-HCl buffer solution (pH 8) was prepared to achieve a concentration of 1.015 mM. This elastase substrate was combined with 10 μL of the test samples at the same concentrations used as in the viability assay in 96-well plates and pre-incubated at room temperature (25 ± 5 °C) for 10 min. Subsequently, the reaction was initiated by adding 10 μL of elastase from porcine pancreas (7.5 units/mL) in Tris buffer solution to the pre-incubated mixtures. Absorbance was then measured at 410 nm using a microplate reader.

[13] = HMCB cells, read-out: Inhibitory activity of melanin production IC50
[14] = Homo sapiens, THP-1, 72 h; read-out: Activation of Nrf2 production EC50
[15] = Homo sapiens, HEK001, 72 h; read-out: Activation of Nrf2 production EC50

T1 sequence (P00772 27-266): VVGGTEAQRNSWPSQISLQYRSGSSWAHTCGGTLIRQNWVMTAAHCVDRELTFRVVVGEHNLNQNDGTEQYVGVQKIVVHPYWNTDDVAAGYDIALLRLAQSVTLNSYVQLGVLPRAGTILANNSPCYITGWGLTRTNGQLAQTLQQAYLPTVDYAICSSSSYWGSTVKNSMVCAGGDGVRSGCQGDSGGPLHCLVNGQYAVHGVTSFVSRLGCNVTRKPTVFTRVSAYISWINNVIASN

Row | SMILES | IC50 [3, 13] | IC50 (NF-κB [4]; THP-1, LPS-stimulated, 72 h) | IC50 (NF-κB [5]; HEK001, LPS-stimulated, 72 h) | IC50 (NF-κB [6]; WS1, LPS-stimulated) | IC50 (NF-κB [7]; LPS-stimulated) | EC50 (Nrf2 [8]; [14]) | EC50 (Nrf2 [9]; [15]) | EC50 (Nrf2 [10]; WS1, 72 h) | EC50 (Nrf2 [11]) | Elastase Inhibition (%) [12] | IC50 ([12]; read-out: Anti-Elastase IC50) | also measured
1 | CNC(=O)c1ccccc1NC(=O)/C=C/c1ccc(OC)c(OC)c1 [Compound 1, (E)-2-(3-(3,4-dimethoxyphenyl)acrylamido)-N-methylbenzamide] | 22.2 µM | 12.7 ± 0.34 µM | 11.2 ± 0.23 µM | 11 ± 0.67 µM | 9.82 ± 0.65 µM | 0.116 µM | 0.202 µM | 0.268 µM | 0.385 µM | 60.76 ± 1.44% | 80.1 ± 1.92 µM | CC50 at 72 h ([1]; THP-1 cells (peripheral blood monocytes), THP-1, NR assay, 72 h, read-out: Viability CC50): 80 µM; CC50 at 72 h ([2]; HEK001 cells (cutaneous keratinocytes), HEK001, NR assay, 72 h, read-out: Viability CC50): 76.2 µM; CC50 at 72 h (NR viability assay, WS1; WS1 cells (cutaneous fibroblasts), WS1, NR assay, 72 h, read-out: Viability CC50): 73 µM; CC50 at 72 h (NR viability assay, HMCB; HMCB cells (cutaneous melanoma), HMCB, NR assay, 72 h, read-out: Viability CC50): 69.8 µM
2 | O=C(O)c1cc(O)c2ccccc2n1 [Compound 2, 4-hydroxyquinoline-2-carboxylic acid] | 44.7 µM | 37.2 ± 0.72 µM | 35.42 ± 0.12 µM | 32.7 ± 0.51 µM | 30.7 ± 0.98 µM | 0.49 µM | 0.32 µM | 0.361 µM | 0.506 µM | 17.68 ± 1.46% | 168 ± 3.09 µM | CC50 at 72 h ([1]; Viability CC50): 100 µM; CC50 at 72 h [2]: 95 µM; CC50 at 72 h (NR viability assay, WS1): 89.9 µM; CC50 at 72 h (NR viability assay, HMCB): 87.7 µM
3 | N#C/C(=C\c1ccc(O)cc1)C(=O)O [Compound 3, (E)-2-cyano-3-(4-hydroxyphenyl)acrylic acid] | – | – | – | – | – | – | – | – | 1.02 µM | 6.19 ± 1.44% | – | CC50 at 72 h ([1]; THP-1, NR assay, 72 h, read-out: Viability CC50): 141 µM; CC50 at 72 h ([2]; HEK001, NR assay, 72 h, read-out: Viability CC50): 130 µM; CC50 at 72 h (NR viability assay, WS1; WS1, NR assay, 72 h, read-out: Viability CC50): 107 µM; CC50 at 72 h (NR viability assay, HMCB; HMCB, NR assay, 72 h, read-out: Viability CC50): 98.4 µM; IC50 ([3]; HMCB, read-out: Inhibitory activity of melanin production IC50, HMCB cells, 12 h): 71.1 µM; IC50 (NF-κB [4]; THP-1, 72 h): 58.8 ± 0.86 µM; IC50 (NF-κB [5]; HEK001, 72 h): 55.97 ± 0.32 µM; IC50 (NF-κB [6]): 53.21 ± 0.23 µM; IC50 (NF-κB [7]): 51.42 ± 0.13 µM; EC50 (Nrf2 [8]; Homo sapiens, THP-1, 72 h, read-out: Activation of Nrf2 production EC50): 0.707 µM; EC50 (Nrf2 [9]; Homo sapiens, HEK001, 72 h, read-out: Activation of Nrf2 production EC50): 0.951 µM; EC50 (Nrf2 [10]; 72 h): 0.983 µM; IC50 [12]: 192 ± 3.78 µM
